One test deals with 5xFAD mice. Briefly: Radial arm maze test in 5xFAD model of Alzheimer's disease. The format is in vivo, mouse. The note with it: 20 mg/kg/day, 3 to 7 months of age. On the procedure: FIG. 6. A, B and C: Chronic treatment with HPA acid or its prodrug, DHA-H, prevents cognitive decline typical of Alzheimer's disease in the murine transgenic model (5xFAD). Cognitive assessment was performed by the 8-arm Radial Labyrinth test. The animals received treatment between 3 and 7 months of age and the test was performed during the last month of treatment. During this test, the total errors made during the test (A), the reference memory errors (RME) (B) and the working memory errors (WME) (C) were taken into account. Each column represents the mean±SEM of errors during the last week of the radial labyrinth test. The black columns represent the errors made by WT mice. The blank columns represent the errors made by the 5xFAD transgenic mice treated with the vehicle (5% ethanol). Striped columns represent errors made by 5xFAD mice treated with DHA-H (20 mg/kg/day). Boxed columns represent errors made by 5xFAD mice treated with HPA (20 mg/kg/day). […] The bars represent the mean±standard error for each treatment condition and the statistical analysis was performed by unidirectional ANOVA and the Tukey multiple evaluation test: *p<0.05 when compared to healthy control (WT) and #p<0.05 when compared to 5xFAD control condition (treated with the vehicle). […]

A further test deals with MIA-PaCa 2. Briefly: IC50 in tumor cell cultures (cell survival, XTT / trypan blue). Format: cell-based. The note with it: Homo sapiens; MIA-PaCa 2 pancreatic cancer cell line. On the procedure:
(§1) Cell survival was analyzed in a Barker chamber using trypan blue vital exclusion staining (Scharlab) or by cell proliferation kit II (Roche). Briefly, the cells were seeded in 96-well plates at a density of 3 x 10^3 cells per well 24 h prior to treatment, and then cultured in the presence or absence of compounds of interest at the concentrations and for the times indicated in the figures. After different times, plaque viable cells were determined by the addition of XTT according to the manufacturers instructions. Cells were incubated at 37° C. in 5% CO2 until a constant color was developed and absorbance was recorded at 495 nm using a microplate reader with a reference wavelength of 650 nm (FLUOstar Omega, BMG LABTECH, Germany).
(§2) The anti-tumor activity of the different metabolites described in FIGS. 8 and 9 was determined by direct treatment with these molecules (HDA or C17:2 ω-6, HTA ω-3 or C17:3 ω-3, HTA ω-6 or C17:3 ω-6, NTA or C19:4 ω-6, NPA or C19:5 ω-3, and HPA or C21:5 ω-3) in tumor cell cultures, on which the IC50 value for each of these compounds was determined (Inhibitory Concentration 50: concentration of study compound that induces death of 50% of the tumor cell population).

The subject of the next test is A549. The description is as above. The format is cell-based. The note with it: A549 human lung adenocarcinoma cell line. As to the method:
as §1, §2

With `CCC=CCC=CCC=CCC=CCC=CCC=CCC(O)C(=O)O` (stereo not shown) [DHA-H, 2-hydroxy-drocosahexaenoic acid], the “Cognition in 8-arm radial labyrinth test (total errors, RME, WME)” value with 5xFAD mice is listed as “cognitive improvement”.

For the molecule `CC/C=C\C/C=C\C/C=C\C/C=C\C/C=C\CCCCC(=O)O` [HPA, (6Z,9Z,12Z,15Z,18Z)-heneicosa-6,9,12,15,18-pentaenoic acid], the “Cognition in 8-arm radial labyrinth test (total errors, RME, WME)” value in the test with 5xFAD mice is given as “cognitive improvement”. In addition, the IC50 (as a rule, the point on the concentration scale where inhibition reaches its midpoint) in the test with MIA-PaCa 2 was 58 ± 17 µM; in the test on A549, 228 ± 3 µM.

For the origin of these results see patent publication US20230097753A1, “ALPHA-HYDROXYLATED FATTY-ACID METABOLITES, MEDICAL USES AND USE AS BIOMARKERS” (UNIVERSITAT DE LES ILLES BALEARS, priority 2020, published 2023).
